# Values of other authors as cited in publication PMC9899610 (Cancer Science, 2022).
# Where two headings read alike, the source gives them in different places.
# Test system: patients with advanced or metastatic cholangiocarcinoma; urothelial carcinoma
# Settings: cited from earlier work
# [1] = patients with advanced or metastatic cholangiocarcinoma
compound,measurement,setting,value
CCN1CCN(c2ccc(Nc3cc(N(C)C(=O)Nc4c(Cl)c(OC)cc(OC)c4Cl)ncn3)cc2)CC1 [infigratinib],Retinal AEs requiring dose interruption or treatment discontinuation,,two discontinuations
same,"Hyperphosphatemia, patients",[1],77%
CCN1C(=O)N(c2c(F)c(OC)cc(OC)c2F)Cc2cnc3[nH]c(CN4CCOCC4)cc3c21 [pemigatinib],Retinal AEs requiring dose interruption or treatment discontinuation,,one dose interruption
same,"Hyperphosphatemia, patients",[1],60%
COc1cc(OC)cc(N(CCNC(C)C)c2ccc3ncc(-c4cnn(C)c4)nc3c2)c1 [erdafitinib],"Hyperphosphatemia, patients",patients with urothelial carcinoma,77%
same,Patients who discontinued treatment because of retinal detachment,phase II study,13%
